The values below come from ChEMBL document CHEMBL1159258, “Identification of the glycosidase inhibitors swainsonine and calystegine B2 in Weir vine (Ipomoea sp. Q6 [aff. calobra]) and correlation with toxicity” (J Nat Prod, 1995).

One test concerns Prunus dulcis. The experiment in a line: Inhibition of almond beta-glucosidase at 0.6 ug/mL by colorimetric assay.
In test [1] the target is T1, Alpha-galactosidase (Aspergillus niger) (UniProt Q9Y865).
T1 sequence (whole entry): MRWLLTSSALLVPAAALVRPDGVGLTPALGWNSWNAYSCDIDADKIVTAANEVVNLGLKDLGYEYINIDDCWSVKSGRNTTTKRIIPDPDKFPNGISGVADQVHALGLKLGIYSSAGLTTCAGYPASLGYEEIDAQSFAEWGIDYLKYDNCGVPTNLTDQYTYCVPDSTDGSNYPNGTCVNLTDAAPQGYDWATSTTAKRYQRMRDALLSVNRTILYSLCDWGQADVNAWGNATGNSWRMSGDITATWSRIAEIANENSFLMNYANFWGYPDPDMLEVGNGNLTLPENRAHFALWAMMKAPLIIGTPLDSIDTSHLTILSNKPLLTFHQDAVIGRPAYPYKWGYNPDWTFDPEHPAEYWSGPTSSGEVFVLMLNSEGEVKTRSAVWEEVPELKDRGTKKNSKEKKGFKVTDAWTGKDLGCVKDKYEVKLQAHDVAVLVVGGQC
The experiment in a line: Inhibition of Aspergillus niger alpha-galactosidase at 1.2 ug/mL by colorimetric assay.

The subject of a further test is Canavalia ensiformis. The test is described as follows: Inhibition of jack bean alpha-mannosidase at 25 to 30 ng/mL by colorimetric assay.

For orientation: inhibition means the change of the read-out against control, counted positive when it falls. Higher therefore signals a response far below the control. Consider `O[C@@H]1[C@@H](O)[C@H](O)[C@]2(O)CC[C@H]1N2`, for which the inhibition (in the test on Prunus dulcis; in test [1]) was 50% throughout.
Consider `O[C@H]1[C@H]2[C@H](O)CCCN2C[C@H]1O`, for which, in the test on Canavalia ensiformis, the inhibition came to 50%.
